PubChem BioAssay (NCI)
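These data come from cells grown in 96-well plates and exposed to compound for 48 hours at five concentrations. GI50 is the concentration that inhibits growth by half. The concentration for full growth arrest is given as TGI.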

Columns and labels:
Assay in all cases: inhibition of tumour cell growth, NCI panel, 48 h
786-0 renal = system: 786-0 renal
A498 renal = system: A498 renal
A549 NSCLC = system: A549 NSCLC
ACHN renal = system: ACHN renal
BT-549 breast = system: BT-549 breast
CAKI-1 renal = system: CAKI-1 renal
CCRF-CEM leukemia = system: CCRF-CEM leukemia
COLO 205 colon = system: COLO 205 colon
DU-145 prostate = system: DU-145 prostate
EKVX NSCLC = system: EKVX NSCLC
HCC-2998 colon = system: HCC-2998 colon
HCT-116 colon = system: HCT-116 colon
HCT-15 colon = system: HCT-15 colon
HL-60(TB) leukemia = system: HL-60(TB) leukemia
HOP-62 NSCLC = system: HOP-62 NSCLC
HOP-92 NSCLC = system: HOP-92 NSCLC
HS 578T breast = system: HS 578T breast
HT29 colon = system: HT29 colon
IGROV1 ovarian = system: IGROV1 ovarian
K-562 leukemia = system: K-562 leukemia
KM12 colon = system: KM12 colon
LOX IMVI melanoma = system: LOX IMVI melanoma
M14 melanoma = system: M14 melanoma
MALME-3M melanoma = system: MALME-3M melanoma
MCF7 breast = system: MCF7 breast
MDA-MB-231 breast = system: MDA-MB-231 breast
MDA-MB-435 = system: MDA-MB-435
MOLT-4 leukemia = system: MOLT-4 leukemia
NCI-H226 lung = system: NCI-H226 lung
NCI-H23 lung = system: NCI-H23 lung
NCI-H460 lung = system: NCI-H460 lung
NCI-H522 lung = system: NCI-H522 lung
NCI/ADR-RES ovarian = system: NCI/ADR-RES ovarian
OVCAR-3 ovarian = system: OVCAR-3 ovarian
OVCAR-4 ovarian = system: OVCAR-4 ovarian
OVCAR-5 ovarian = system: OVCAR-5 ovarian
OVCAR-8 ovarian = system: OVCAR-8 ovarian
PC-3 prostate = system: PC-3 prostate
RPMI-8226 leukemia = system: RPMI-8226 leukemia
RXF 393 renal = system: RXF 393 renal
SF-268 CNS = system: SF-268 CNS
SF-295 CNS = system: SF-295 CNS
SF-539 CNS = system: SF-539 CNS
SK-MEL-2 melanoma = system: SK-MEL-2 melanoma
SK-MEL-28 melanoma = system: SK-MEL-28 melanoma
SK-MEL-5 melanoma = system: SK-MEL-5 melanoma
SK-OV-3 ovarian = system: SK-OV-3 ovarian
SN12C renal = system: SN12C renal
SNB-19 CNS = system: SNB-19 CNS
SNB-75 CNS = system: SNB-75 CNS
SW-620 colon = system: SW-620 colon
T-47D breast = system: T-47D breast
TK-10 renal = system: TK-10 renal
U251 CNS = system: U251 CNS
UACC-257 melanoma = system: UACC-257 melanoma
UACC-62 melanoma = system: UACC-62 melanoma
UO-31 renal = system: UO-31 renal

## O=C(NC1CCCCC1)OCc1c(COC(=O)NC2CCCCC2)c(-c2ccc(Cl)c(Cl)c2)n2c1CCC2
786-0 renal
  GI50: 3.26 µM
  TGI: 10.7 µM
A498 renal
  GI50: 1.59 µM
  TGI: 3.32 µM
A549 NSCLC
  GI50: 7.47 µM
  TGI: 94.2 µM
ACHN renal
  GI50: 3.04 µM
  TGI: 41.6 µM
BT-549 breast
  GI50: 3.53 µM
  TGI: 14.2 µM
CAKI-1 renal
  GI50: 2.35 µM
  TGI: > 100 µM
CCRF-CEM leukemia
  GI50: 3.21 µM
  TGI: > 100 µM
COLO 205 colon
  GI50: 4.2 µM
  TGI: 16.6 µM
DU-145 prostate
  GI50: 3.72 µM
  TGI: 20.9 µM
EKVX NSCLC
  GI50: 9.79 µM
  TGI: 94.4 µM
HCC-2998 colon
  GI50: 10.5 µM
  TGI: 23 µM
HCT-116 colon
  GI50: 3.72 µM
  TGI: 15.2 µM
HCT-15 colon
  GI50: 5.56 µM
  TGI: 43.2 µM
HL-60(TB) leukemia
  GI50: 2.24 µM
  TGI: > 100 µM
HOP-62 NSCLC
  GI50: 4.57 µM
  TGI: 21 µM
HOP-92 NSCLC
  GI50: 1.94 µM
  TGI: 12.5 µM
HS 578T breast
  GI50: 3.72 µM
  TGI: 21.4 µM
HT29 colon
  GI50: 4.97 µM
  TGI: 71.4 µM
IGROV1 ovarian
  GI50: 5.62 µM
  TGI: > 100 µM
K-562 leukemia
  GI50: 4.83 µM
  TGI: > 100 µM
KM12 colon
  GI50: 11.9 µM
  TGI: 29.3 µM
LOX IMVI melanoma
  GI50: 2.98 µM
  TGI: 16.4 µM
M14 melanoma
  GI50: 4.17 µM
  TGI: 16.3 µM
MALME-3M melanoma
  GI50: 5.92 µM
  TGI: 22.7 µM
MCF7 breast
  GI50: 3.83 µM
  TGI: 27.9 µM
MDA-MB-231 breast
  GI50: 5.6 µM
  TGI: 50.7 µM
MDA-MB-435
  GI50: 8.23 µM
  TGI: 28.8 µM
MOLT-4 leukemia
  GI50: 2.6 µM
  TGI: > 100 µM
NCI-H226 lung
  GI50: 2.51 µM
  TGI: 22.4 µM
NCI-H23 lung
  GI50: 4.35 µM
  TGI: 21 µM
NCI-H460 lung
  GI50: 1.19 µM
  TGI: 14.1 µM
NCI-H522 lung
  GI50: 3.01 µM
  TGI: 11.8 µM
NCI/ADR-RES ovarian
  GI50: 4.24 µM
  TGI: 18.6 µM
OVCAR-3 ovarian
  GI50: 5.32 µM
  TGI: 22.3 µM
OVCAR-4 ovarian
  GI50: 3.42 µM
  TGI: 62.9 µM
OVCAR-5 ovarian
  GI50: 5.19 µM
  TGI: 44.3 µM
OVCAR-8 ovarian
  GI50: 4.3 µM
  TGI: 32.3 µM
PC-3 prostate
  GI50: 6.05 µM
  TGI: 29.3 µM
RPMI-8226 leukemia
  GI50: 4.55 µM
  TGI: 29 µM
RXF 393 renal
  GI50: 2.87 µM
  TGI: 9.36 µM
SF-268 CNS
  GI50: 3.79 µM
  TGI: 21.3 µM
SF-295 CNS
  GI50: 3.38 µM
  TGI: 29.1 µM
SF-539 CNS
  GI50: 3.06 µM
  TGI: 13.7 µM
SK-MEL-2 melanoma
  GI50: 3.72 µM
  TGI: 12.7 µM
SK-MEL-28 melanoma
  GI50: 14.2 µM
  TGI: 45.3 µM
SK-MEL-5 melanoma
  GI50: 7.06 µM
  TGI: 20.8 µM
SK-OV-3 ovarian
  GI50: 2.58 µM
  TGI: 11.8 µM
SN12C renal
  GI50: 3.58 µM
  TGI: > 100 µM
SNB-19 CNS
  GI50: 5.79 µM
  TGI: 47.6 µM
SNB-75 CNS
  GI50: 4.19 µM
  TGI: 25 µM
SW-620 colon
  GI50: 3.89 µM
  TGI: 22.6 µM
T-47D breast
  GI50: 3.83 µM
  TGI: 19.5 µM
TK-10 renal
  GI50: 3.72 µM
  TGI: 31.7 µM
U251 CNS
  GI50: 4.43 µM
  TGI: 22.8 µM
UACC-257 melanoma
  GI50: 10.8 µM
  TGI: 37.4 µM
UACC-62 melanoma
  GI50: 2.37 µM
  TGI: 12.9 µM
UO-31 renal
  GI50: 3.17 µM
  TGI: 16.2 µM
